Patent US20260159486A1, “BENZO[H]QUINAZOLINE-4-AMINE DERIVATIVES FOR THE TREATMENT OF CANCER” (Redona Therapeutics, Inc., priority 2021, published 2026)

Tests used:
recombinant human CLK3 = target: T1, recombinant human CLK3 (Homo sapiens, UniProt P49761); assay: CLK3 kinase assay (LANCE Ultra); assay type: biochemical; conditions: CLK3 0.5 nM, ATP 300 μM, 3 hours at 30° C.
T1 construct: purchased Thermo Fisher Scientific PV3826
Procedure, shortened: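 Recombinant human CLK3 (0.5 nM) with ULight-CREBtide (50 nM) and 300 μM ATP, 3 h at 30 °C in kinase buffer; EDTA stop, then Eu-anti-phospho-CREB antibody (2 nM, 1 h RT), TR-FRET read at 665/620 nm. Inhibition normalized to DMSO and no-ATP wells; IC50 from 4-parameter fit, ten 1:3 concentrations in duplicate.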

[1] = tested on: phospho-SRSF6 in MDA-MB-468 cells; assay: Inhibition of phospho-SRSF6 levels in MDA-MB-468 cells (Western blot); assay type: cell-based; conditions: Homo sapiens, 2 hours, compared to DMSO control
Method: FIG. 1: FIG. 1 provides a representative Western blot showing reduction of phosphorylated-SRSF6 (P—SRSF6) in MDA-MB 468 cells by compounds of the invention. GAPDH was probed for by Western blotting to control for equal protein loading and for normalization of samples. The numbers below the blots show percent inhibition of the P—SRSF6 signal at 100 nM (A) or 10 nM (B) compared to DMSO control.
Assessment of Inhibition of Phospho-SRSF6 Levels in MDA-MB-468 Cells
MDA-MB-468 cells (ATCC, HTB-132) were cultured in DMEM (BioConcept cat. no. 1-26F03) supplemented with 10% FBS (Sigma cat. no. F9665), […] (Sigma cat. no. S8636), 1% Penicillin-Streptomycin (BioConcept cat. no. 4-01FOO-H). When cells reached a density of 70% o in 6-well plates (TPP cat. no. 92006), they were treated either with the test compound vehicle DMSO, or with experimental compounds at a final concentration of either 10 or 100 nM for 2 hours. Thereafter, the culture medium was removed and cells were collected by scraping in Lysis Buffer (20 mM Tris HCl pH7.5, 150 mM NaCl, 1 mM EGTA, 1 mM EDTA, 1% o Triton and 1% o NP-40) containing protease and phosphatase inhibitors (Halt™ Protease&Phosphatase inhibitor cocktail 100× ThermioScientific cat. no. 1861281) and 1 mM PMSF (Fluka cat. no. 93482). Cleared lysates were stored in Eppendorfftubes at −80° C. until use, and protein concentration in lysates was determined using Pierce 660 nm Protein Assay Reagent (ThermioScientific cat. no. 22660). 20 μg proteins were diluted in 4× Laemmli buffer (Biorad cat. no. 161-0747) containing 10% beta-mercaptoethanol, separated by SDS-PAGE using 10% gels, and then transferred to PVDF membranes (Trans Blot Turbo Transfer Pack BioRad cat. no. 1704156) by Trans-Blot® Turbo™ System semidry blotting methodology (BioRad). Primary antibodies were incubated in TBS-0.1% Tween-20 buffer containing 3% BSA Bovine Albumin Fr.V (Millipore cat. no. 81-053-3) overnight at 4° C. The following primary antibodies were used: Mouse anti-phosphoepitope SR proteins clone 1H4 (Millipore cat. no. MABE50) diluted 1:5000, and rabbit anti-GAPDH clone 14C10 (Cell Signaling cat. no. 2118S) to control for equal protein loading, diluted 1:2000. HRP-conjugated secondary antibodies were incubated one hour at room temperature diluted 1:5000 in TBS-0.1% Tween-20 buffer containing […] nonfat-dried bovine milk (Sigma cat. no. M7409). The following secondary antibodies were used: Goat anti-mouse-HRP (Jackson cat. no. 115-035-146) and goat anti-rabbit-HRP (Jackson cat. no. 111-035-144). Membranes were incubated with ECL Prime Western Blot Detection Reagent (Amersham cat. no. RPN2236) to detect specific signals using Fusion SOLO S device (Vilber Lourmat). Pixel intensity of the phopsho-SRSF6 (MW 55 kDa in reference to markers) and GAPDH (MW 37 kDa) signals in the Western blots were determined using Evolution-Capt image analysis software (v17.01, Vilber Lourmat). DMSO control was used to set the phospho-SRSF6 signal at baseline, phospho-SRSF6 signals for each sample were normalized by the respective GAPDH signals and percent intensity of P—SRSF6 signal at 10 and 100 nM compound compared to DMSO control was calculated (see FIG. 1).

T1 sequence (P49761 whole entry): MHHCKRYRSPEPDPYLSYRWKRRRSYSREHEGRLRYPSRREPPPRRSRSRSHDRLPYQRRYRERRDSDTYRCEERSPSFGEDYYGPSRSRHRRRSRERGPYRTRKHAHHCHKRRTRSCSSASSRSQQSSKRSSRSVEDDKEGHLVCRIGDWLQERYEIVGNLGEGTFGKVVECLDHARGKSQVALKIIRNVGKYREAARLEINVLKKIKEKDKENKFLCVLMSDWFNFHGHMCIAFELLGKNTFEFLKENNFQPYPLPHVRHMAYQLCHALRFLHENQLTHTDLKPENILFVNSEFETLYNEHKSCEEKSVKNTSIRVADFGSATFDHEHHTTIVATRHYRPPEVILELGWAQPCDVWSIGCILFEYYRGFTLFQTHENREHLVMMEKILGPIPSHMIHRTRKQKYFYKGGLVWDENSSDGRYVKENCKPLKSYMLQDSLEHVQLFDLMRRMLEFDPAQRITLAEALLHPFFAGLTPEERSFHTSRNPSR

COCCN(C)c1c(O[C@H]2CC[C@H](N)CC2)ccc2c1CC(C)(C)c1c(N)ncnc1-2 [Example 13, 8-(trans-4-aminocyclohexoxy)-N7-(2-methoxyethyl)-N7,5,5-trimethyl-6H-benzo[h]quinazoline-4,7-diamine]
IC50 (recombinant human CLK3): 30 to 100 nM
inhibition at 0.01 µM ([1]; 10 nM, read-out: >50% p-SRSF6 reduction at 10 nM): < 50%
inhibition at 0.1 µM ([1]; 100 nM, read-out: >50% p-SRSF6 reduction at 100 nM): > 50%
